Measured values as given in the supplement of paper PMC5844555.

Experiments:
Test in all cases: 3' UTR reporter interaction score (median-centred robust z-score of log2 firefly/Renilla activity); higher = less repression of the 3' UTR reporter
Conditions in all cases: HEK293T; 48 h
TP53 = system: TP53
Outline: (§1)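 A firefly luc2P reporter carrying the gene's 3' UTR (100 ng), Renilla pRL-TK control (20 ng) and miRNA mimic (2.5 pmol) were co-transfected with DharmaFECT Duo into HEK293T cells plated at 10,000/well in 96-well plates. Luciferase activities were read 48 h post-transfection. The interaction score is the log firefly/Renilla ratio as a per-plate robust z-score from median and median absolute deviation, median-centred per miRNA, and more negative indicates interaction. Values are averages of at least two independent screens.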

ZEB2 = system: ZEB2
Outline: as §1

HRAS = system: HRAS
Outline: as §1

FBXW7 = system: FBXW7
Outline: as §1

MYT1L = system: MYT1L
Outline: as §1

PHF6 = system: PHF6
Outline: as §1

MYCN = system: MYCN
Outline: as §1

NOTCH1 = system: NOTCH1
Outline: as §1

MYC = system: MYC
Outline: as §1

PHOX2B = system: PHOX2B
Outline: as §1

MYB = system: MYB
Outline: as §1

BRCA2 = system: BRCA2
Outline: as §1

RB1 = system: RB1
Outline: as §1

EZH2 = system: EZH2
Outline: as §1

Sequence | 3' UTR reporter interaction score (TP53) | 3' UTR reporter interaction score (ZEB2) | 3' UTR reporter interaction score (HRAS) | 3' UTR reporter interaction score (FBXW7) | 3' UTR reporter interaction score (MYT1L) | 3' UTR reporter interaction score (PHF6) | 3' UTR reporter interaction score (MYCN) | 3' UTR reporter interaction score (NOTCH1) | 3' UTR reporter interaction score (MYC) | 3' UTR reporter interaction score (PHOX2B) | 3' UTR reporter interaction score (MYB) | 3' UTR reporter interaction score (BRCA2) | 3' UTR reporter interaction score (RB1) | 3' UTR reporter interaction score (EZH2)
AAAGUGCUUCCUUUUAGAGGGUU | -0.295 | 0.894 | 0.0494 | 1.34 | -0.468 | 0.00103 | -0.338 | 0.779 | -0.227 | 0.533 | -0.903 | -0.282 | 1.13 | -1.12
AAAGUGCUUCCUUUUUGAGGG | 0.0321 | 0.44 | -0.00896 | 0.747 | -0.441 | -0.0231 | -0.0937 | 0.985 | 0.0093 | 1.32 | -0.87 | 0.142 | 1.02 | -0.296
AACACACCUGGUUAACCUCUUU | 0.317 | 0.382 | 0.473 | -0.274 | 0.591 | -2.01 | 1.21 | -1.72 | -0.499 | 0.138 | -0.0237 | 0.0379 | -0.572 | 0.419
AACAGGUGACUGGUUAGACAA | -0.34 | -0.428 | 0.125 | 1.13 | -0.793 | -0.792 | -1.32 | 1.15 | -1.37 | 2.14 | -0.0471 | -0.352 | -0.637 | 0.144
AACAUUCAACCUGUCGGUGAGU | -0.761 | 1.39 | -0.974 | 0.747 | 1.67 | 0.226 | -1.2 | 0.774 | -0.157 | 0.334 | 1.08 | -1.56 | 0.216 | -0.0307
AACAUUCAACGCUGUCGGUGAGU | 0.784 | -0.18 | -0.301 | -0.842 | -0.0848 | -0.891 | -0.12 | 0.193 | 0.478 | -0.00434 | 0.057 | 0.243 | 0.404 | -0.146
AACAUUCAUUGUUGUCGGUGGGUU | -1.07 | 1.49 | -0.818 | 0.226 | 1.2 | 0.446 | -0.95 | 0.549 | -0.122 | 0.761 | 0.819 | -0.763 | 0.277 | -0.453
AACUGGCCCUCAAAGUCCCGCUUU | – | 0.222 | 1.58 | 0.0369 | -0.278 | -1.81 | -2.37 | -1.04 | 0.891 | 0.301 | -3.7 | 0.335 | 1.12 | 0.347
AACUGGCCUACAAAGUCCCAG | -0.0425 | 0.719 | 1.01 | 0.16 | -0.789 | – | -2.47 | -1.05 | 0.942 | -0.335 | -3.25 | -0.135 | 0.314 | 0.239
AAUCGUACAGGGUCAUCCACUU | 0.0793 | 0.283 | 0.0979 | 0.407 | -0.171 | – | -0.121 | 0.0951 | 0.0345 | 1.36 | 0.179 | -0.12 | -0.619 | 0.723
AUCACAUUGCCAGGGAUUACC | – | 1.1 | -0.747 | -0.221 | 0.363 | 0.0907 | 0.139 | -0.965 | 0.209 | 0.2 | -0.174 | -1.56 | 0.534 | 0.0796
CAAAGUGCUUACAGUGCAGGUAGU | 0.459 | 1.15 | 0.135 | – | -0.396 | -0.0772 | -0.306 | 0.897 | 0.444 | 0.665 | -0.142 | -0.125 | 0.713 | -0.848
CCUAGUAGGUGUCCAGUAAGUGU | -0.172 | – | -0.971 | -0.251 | 0.0095 | -0.224 | 0.245 | 0.26 | 0.727 | 0.805 | 0.0319 | -0.873 | -1.08 | -0.633
GGCAAGAUGCUGGCAUAGCUG | -0.71 | 1.14 | 0.647 | 1.19 | -0.16 | -1.44 | 0.322 | -0.293 | 0.017 | 1.14 | 0.765 | – | 0.334 | -0.113
GUGAAAUGUUUAGGACCACUAG | 0.19 | 0.105 | -0.276 | 0.238 | 0.987 | 1.07 | -0.394 | -0.392 | – | 0.216 | -0.192 | -0.28 | -0.00504 | -0.221
UAAUACUGCCUGGUAAUGAUGAC | -0.665 | -3.47 | -0.0979 | -0.751 | 1.12 | 2 | -0.158 | -0.616 | 1.05 | -1.14 | -2.25 | – | 0.622 | 0.31
UACUCAGGAGAGUGGCAAUCACA | – | 0.272 | -0.17 | -0.521 | -0.715 | -1.8 | 0.696 | -0.379 | 0.13 | 0.756 | 1.48 | 0.435 | -0.0737 | -0.403
UCACUCCUCUCCUCCCGUCUUCU | -0.451 | 1.61 | -0.435 | -1.25 | 1.44 | 0.199 | 0.923 | 1.17 | – | -0.219 | 0.575 | -0.727 | 0.27 | -1.64
UGUAAACAUCCUUGACUGGA | -0.0994 | -1.5 | 0.642 | 0.548 | 0.512 | -0.821 | -0.313 | -0.407 | – | 0.574 | 0.77 | 0.0901 | -0.17 | -0.145
UUUCAAGCCAGGGGGCGUUUUUC | 1.02 | – | -0.232 | 1.22 | 0.976 | -0.209 | -0.0394 | -1.91 | 0.49 | -0.413 | 0.555 | -0.216 | -0.19 | -0.378
